Data set [1] addresses α1 receptors. Briefly: in vitro affinity for the α1 receptors, determined in respect of [^3 H]-Prazosin. In kind it is binding. The text has this: (§1) Bremner, Eur. J. Pharmacol 55, 323 (1979) and D. C. U. Prichard et al, Mol. Pharmacol 13, 454 (1977), while in vivo they seem to have a low toxicity and a good and durable anti-hypertensive activity, determined in the SHR rat by oral route, with the method reported by J Pfeffer et al, J. Lab. Clin. Med. 78, 957 (1971).

Data set [2] is described as follows: toxicity, expressed as LD50, oral. The conditions noted are these: in vivo.
Data set [3] concerns the target α2 receptors. Briefly: in vitro action on the α2 receptors, determined in respect of [^3 H]-Clonidine. In kind it is binding.
Description: as §1

Data set [4] deals with SHR rat. Briefly: anti-hypertensive activity in the SHR rat by oral route (with heart rate). The class given is in vivo.
Description: as §1

Each structure is given as a SMILES string.

In the case of `COc1cc2nc(N3CCN(CC(O)C4(C)COc5ccccc5O4)CC3)nc(N)c2cc1OC.Cl` (stereo not shown) [1-(4-amino-6,7-dimethoxyquinazolin-2-yl)-4-[2-(2,3-dihydro-2-methyl-1,4-benzodioxin-2-yl)-2-hydroxyethyl]-piperazine hydrochloride], the IC50 is 3.6 nM in data set [1] and > 10000 nM in data set [3]. Moreover, in data set [2], the LD50 was > 2000 mg/kg. Also, the “effect on heart rate” value in data set [4] (30 mg/kg/os dosage) is “without significantly modifying the heart rate”. Also, in data set [4] (SHR rat, 30 mg/kg/os dosage), the “reduction in the pressure” value is recorded as 20%.

Consider `CC1(C(O)CN2CCC(n3c(=O)[nH]c4ccccc43)CC2)COc2ccccc2O1` (racemic) [1-[2-(2,3-dihydro-2-methyl-1,4-benzodioxin-2-yl)-2-hydroxy-ethyl]-4-piperidinyl]-1,3-dihydro-2H-benzimidazol-2-one], for which the results for the IC50 in data set [1] and in data set [3] were 55 nM and 18000 nM, respectively. Also, in data set [2], the LD50 is ~1000 mg/kg. In addition, the “effect on heart rate” value in data set [4] (20 mg/kg/os dosage) is given as “without significantly varying the heart rate”. Moreover, the “reduction of the pressure” value in data set [4] (SHR rat, 20 mg/kg/os dosage) came to 21%.

The values above are taken from US4948797A, “2,2-disubstitued 2,3-dihydro-1,4-benzodioxin derivatives having hypotensive activity” (Istituto Luso Farmaco d'Italia S.p.A., priority 1988, dated 1990).
